The values below come from US11896007B2, “Pest control using natural pest control agent blends” (TYRATECH, INC., priority 2008, dated 2024).

For assay [1], the target named is T1, Drosophila TyrR (Drosophila melanogaster, UniProt P22270, C261Y).
T1 construct: The open reading frame contained in this PCR product encodes a protein of 601 amino acids; expressed in transfected cells
T1 sequence (P22270 27-601 C261Y): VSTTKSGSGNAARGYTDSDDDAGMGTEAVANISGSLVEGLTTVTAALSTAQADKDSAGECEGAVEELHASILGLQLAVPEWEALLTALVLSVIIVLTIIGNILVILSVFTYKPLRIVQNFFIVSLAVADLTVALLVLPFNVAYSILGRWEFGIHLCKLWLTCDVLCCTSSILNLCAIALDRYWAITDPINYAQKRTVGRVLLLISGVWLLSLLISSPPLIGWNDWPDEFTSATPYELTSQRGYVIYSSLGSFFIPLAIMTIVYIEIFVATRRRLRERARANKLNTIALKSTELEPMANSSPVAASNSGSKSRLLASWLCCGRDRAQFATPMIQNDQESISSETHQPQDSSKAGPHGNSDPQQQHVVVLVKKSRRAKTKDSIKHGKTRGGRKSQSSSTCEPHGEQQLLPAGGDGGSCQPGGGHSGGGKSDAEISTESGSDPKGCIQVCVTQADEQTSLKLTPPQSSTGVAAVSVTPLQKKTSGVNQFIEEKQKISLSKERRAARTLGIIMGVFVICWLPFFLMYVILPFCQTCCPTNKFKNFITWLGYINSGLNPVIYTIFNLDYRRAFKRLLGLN
Kind of assay: Competitive tyramine receptor binding assay with 3H-tyramine.

The target of assay [2] is T2, Drosophila tyramine receptor (droTyrR) (Drosophila melanogaster, UniProt P22270, C261Y).
T2 construct: The open reading frame contained in this PCR product encodes a protein of 601 amino acids; expressed in transfected cells
T2 sequence (P22270 27-601 C261Y): T1 sequence (P22270 27-601 C261Y)
The assay is described as follows: Intracellular calcium ([Ca2+]i) in S2 cells stably transfected with Drosophila tyramine receptor (Fura-2 AM). In kind it is cell-based. The settings on record: 1 μM; Dro-TyrR-expressing S2 cells; no increase in pAC control cells (FIG. 25). The protocol: The blend (at a final concentration of 0.5 mg/mL) was tested on a Drosophila Scheider 2 (“S2”) cell line that was stably transfected with a DNA encoding a tyramine receptor that was amplified from a Drosophila melanogaster head cDNA phage library (“droTyrR”). The intracellular calcium levels (“[Ca^2+]i”) in the treated S2 cells were then measured as a function of time. As a comparison, the a solution of carrier (canola oil, final concentration=0.12 mg/mL) and a solution of surfactant (sugar ester OWA-1570) in insect saline were tested separately.
In a separate set of experiments, the blend (at a final concentration of 0.5 mg/mL) was tested on a Drosophila Scheider 2 (“S2”) cell line that was stably transfected with droTyrR DNA, and the intracellular calcium levels (“[Ca^2+]i”) in the treated S2 cells were then measured as a function of time. […]
In yet another separate set of experiments, the blend (at a final concentration of 0.5 mg/mL) was tested on a Drosophila Scheider 2 (“S2”) cell line that was stably transfected with droTyrR DNA, and the intracellular calcium levels (“[Ca^2+]i”) in the treated S2 cells were then measured as a function of time. […]
Increased cytoplasmic concentrations of IP3 induce release of Ca2+ from the endoplasmic reticulum. […] Data are normalized by dividing each value by the background fluorescence at the beginning of the assay before adding the test sample. […]

Assay [3] deals with T1, Drosophila TyrR. The assay is described as follows: 3H-tyramine saturation binding to membranes of S2 cells expressing TyrR. The settings on record: 0.1 to 30 nM 3H-tyramine. The protocol:
To first isolate membranes, Dro-TyrR-expressing S2 cells grown in Drosophila media are harvested in the same media by scraping from the dishes and then rinsing dishes with PBS. The cells are centrifuged at 1000 g for 3 min, washed once with PBS and centrifuged again as previously described. The cells are suspended in ice cold hypotonic buffer (10 mM Tris-Cl, pH 7.4), incubated on ice for 10 min, and lysed using a glass Bounce homogenizer and tight glass pestle (Kontes Glass Co., Vineland, N.J.) with 10 strokes. Nuclei are pelleted by centrifugation at 600 g for 5 min. The supernatant is decanted and centrifuged at 30,000 g for 30 min to pellet a crude membrane fraction. The pellet is suspended in binding buffer (50 mM Tris-Cl, 5 mM MgCl2, pH 7.4). Protein concentration is determined by the Bradford Assay (Bio-Rad Laboratories, Hercules, Calif.). Membranes are frozen on dry ice then stored at −75° C. in aliquots.
[…] The binding reaction is incubated at 23° C. in the presence and absence of 10 μM unlabeled tyramine. Reactions are terminated after 60 min by addition of 3 ml ice cold binding buffer and filtered over GF/C filters that have been soaked for 30 min in 0.3% polyethylenimine. Filters are rinsed one additional time with 3 ml binding buffer. […]

As usually defined, the Ki is a measure of affinity in units of concentration, obtained from inhibition or displacement. A high value points to weaker binding. A word on the Kd: it is the concentration at which binding is half-saturated.

The compound `NCC(O)c1ccc(O)cc1` (racemic) [Octopamine (OA), DL-octopamine] gave a Ki on Drosophila TyrR [1] (competitive binding with 3H-tyramine) of 28.7 µM.

In the case of `NCCc1ccc(O)cc1` [Tyramine (TA), Tyramine], the “affinity for TyrR relative to DL-octopamine” value on Drosophila TyrR [1] (ratio of Ki values) was “about 22.58 fold”. In addition, in assay [2], the “Ca2+-bound Fura-2 AM fluorescence” value was “sharp increase”.

Regarding `NCCc1ccc(O)cc1` [^3H-tyramine], the Kd on Drosophila TyrR [3] (10 μM unlabeled tyramine for nonspecific binding, read-out: Kd for specific binding) was found to be 0.00256 µM. In addition, the “Bmax for specific binding” value on Drosophila TyrR [3] (membranes of TyrR-expressing S2 cells) was 0.679 pmol receptor/mg membrane protein.
